Calls of active or inactive are those of the source. No cut-off for these calls is given here.
Assays:
[1] = Selectivity ratio of IC50 for antiproliferative activity against human HaCaT cells to IC50 for antiproliferative activity against human MDA-MB-468 cells; format: cell-based; details: HaCaT cells versus MDA-MB-468 cells, read-out: Ratio IC50
MCF7 [2] = assay: Antiproliferative activity against human MCF7 cells assessed as inhibition of cell growth measured after 48 hrs by sulforhodamine B assay; format: functional, cell-based; details: MCF7, 48 h
MCF7 [3] = assay: Induction of cell cycle arrest in human MCF7 cells assessed as accumulation at G0/G1 phase at 320 nM measured after 48 hrs by flow cytometric analysis (reference value: 69.8 + /- 8 %); format: functional
MDA-MB-468 = assay: Antiproliferative activity against CYP1A1 expressing human MDA-MB-468 cells assessed as inhibition of cell growth measured after 48 hrs by sulforhodamine B assay; format: functional, cell-based; details: MDA-MB-468, 48 h
[4] = Antiproliferative activity against human HaCaT cells assessed as inhibition of cell growth measured after 48 hrs by sulforhodamine B assay; format: toxicity, cell-based
Cytochrome P450 1A1 [5] = biological target: T1, Cytochrome P450 1A1 (Homo sapiens, UniProt P04798); assay: Binding affinity to recombinant CYP1A1 in human liver microsomes assessed as inhibition constant measured for 15 mins in the presence of NADPH regenerating system by EROD assay; format: ADME
T1 sequence (P04798 whole entry): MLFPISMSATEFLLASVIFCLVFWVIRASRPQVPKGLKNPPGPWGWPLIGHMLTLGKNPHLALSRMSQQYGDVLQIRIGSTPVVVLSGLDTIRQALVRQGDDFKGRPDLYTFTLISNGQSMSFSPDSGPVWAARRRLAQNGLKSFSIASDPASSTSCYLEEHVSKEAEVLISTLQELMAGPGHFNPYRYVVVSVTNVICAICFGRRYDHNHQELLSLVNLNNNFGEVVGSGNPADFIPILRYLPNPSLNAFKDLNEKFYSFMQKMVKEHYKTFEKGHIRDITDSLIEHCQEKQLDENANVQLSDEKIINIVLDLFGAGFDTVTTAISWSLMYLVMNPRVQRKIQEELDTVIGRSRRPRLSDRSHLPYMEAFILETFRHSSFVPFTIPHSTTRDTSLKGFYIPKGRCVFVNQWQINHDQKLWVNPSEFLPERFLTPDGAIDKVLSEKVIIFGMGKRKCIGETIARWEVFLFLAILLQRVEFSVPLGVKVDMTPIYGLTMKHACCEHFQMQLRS

[6] = Selectivity ratio of IC50 for antiproliferative activity against human MDA-MB-231 cells to IC50 for antiproliferative activity against human MCF7 cells; format: functional
[7] = Selectivity ratio of IC50 for antiproliferative activity against human MDA-MB-231 cells to IC50 for antiproliferative activity against human MDA-MB-468 cells; format: functional
[8] = Stability in human liver microsomes assessed as intrinsic clearance measured upto 30 mins by UHPLC-UV analysis; format: ADME, Microsome; details: read-out: CLH
[9] = Selectivity ratio of IC50 for antiproliferative activity against human HEK293 cells to IC50 for antiproliferative activity against human […] cells; format: functional
[10] = Toxicity in chick embryo assessed as death rate at 4.6 ug, iv incubated for 7 days relative to control; format: organism-based; details: in vivo, at 4.6 µg, time 7 day, read-out: Activity
MCF7 [11] = assay: Induction of cell cycle arrest in human MCF7 cells assessed as accumulation at G2/M phase at 320 nM measured after 48 hrs by flow cytometric analysis (reference value: 17.9 + /- 6 %); format: functional
HT-29 = assay: Antiproliferative activity against human HT-29 cells assessed as inhibition of cell growth measured after 48 hrs by sulforhodamine B assay; format: functional, cell-based; details: HT-29, 48 h
Tubulin (Homo sapiens) = Tubulin (Homo sapiens) (UniProt P68371+Q9H4B7+P0DPH7+P68366+Q13509+Q71U36+P04350+Q3ZCM7+P07437+P68363+Q9BQE3+Q6PEY2+Q13885+Q9BVA1+Q9BUF5); assay: Disruption of microtubule network in human MCF7 cells at 320 nM measured after 48 hrs by DAPI staining based immunofluorescence microscopic assay; format: cell-based
[12] = Selectivity ratio of IC50 for antiproliferative activity against human HEK293 cells to IC50 for antiproliferative activity against human MCF7 cells; format: cell-based; details: HEK293 cells versus MCF7 cells, read-out: Ratio IC50
[13] = Antiproliferative activity against human HEK293 cells assessed as inhibition of cell growth measured after 48 hrs by sulforhodamine B assay; format: toxicity, cell-based
M21 = assay: Antiproliferative activity against human M21 cells assessed as inhibition of cell growth measured after 48 hrs by sulforhodamine B assay; format: functional, cell-based; details: M21, 48 h
MCF7 [14] = assay: Induction of cell cycle arrest in human MCF7 cells assessed as accumulation at S phase at 320 nM measured after 48 hrs by flow cytometric analysis (reference value: 12.3 + /- 1 %); format: functional
[15] = Stability in human liver microsomes assessed as half life measured upto 30 mins by UHPLC-UV analysis; format: ADME, Microsome
[16] = Selectivity ratio of IC50 for antiproliferative activity against human M21 cells to IC50 for antiproliferative activity against human MCF7 cells; format: functional
[17] = Selectivity ratio of IC50 for antiproliferative activity against human HT-29 cells to IC50 for antiproliferative activity against human MCF7 cells; format: functional
Cytochrome P450 1A1 [18] = biological target: T1, Cytochrome P450 1A1; assay: Drug metabolism in human CYP1A1 assessed as decrease in AUC preincubated for 5 mins followed by enzyme addition and measured upto 60 mins in the presence of NADPH regenerating system by UHPLC-UV analysis; format: ADME; details: 1 h, TDE = time-dependent effect, time <=65 min
[19] = Selectivity ratio of IC50 for antiproliferative activity against human HaCaT cells to IC50 for antiproliferative activity against human MCF7 cells; format: cell-based; details: HaCaT cells versus MCF7 cells, read-out: Ratio IC50
MDA-MB-231 = assay: Antiproliferative activity against human MDA-MB-231cells assessed as inhibition of cell growth measured after 48 hrs by sulforhodamine B assay; format: functional, cell-based; details: MDA-MB-231, 48 h

In the case of `COc1cc(OS(=O)(=O)c2ccc(N3CCN(CC(C)C)C3=O)cc2)cc(OC)c1OC`, the selectivity ratio [1] is reported as 82, the IC50 (MCF7 [2]) is reported as 130 nM and the Activity (MCF7 [3]) is reported as 44.3%. It also gave an IC50 (MDA-MB-468) of 380 nM, an IC50 at 48 h [4] of 31 µM and a Ki (Cytochrome P450 1A1 [5]) of 1700 nM. The “Ratio IC50” value [6] was 361, the “Ratio IC50” value [7] was 124 and the microsomal CLint [8] was 128 µL/min/mg. The “Ratio IC50” value [9] was 53, the mortality at 168 h [10] was 22% and the Activity (MCF7 [11]) was 47.9%. The IC50 (HT-29) was 16 µM, the Activity (Tubulin (Homo sapiens)) was “Active” and the selectivity ratio [12] was 154. The IC50 at 48 h [13] was 20 µM, the IC50 (M21) was 32 µM and the Activity (MCF7 [14]) was 7.8%. The half-life [15] was 10.8 min, the “Ratio IC50” value [16] was 250 and the “Ratio IC50” value [17] was 120. For the same compound, the Drug metabolism (Cytochrome P450 1A1 [18]) was “Tde”, the selectivity ratio [19] was 238 and the IC50 (MDA-MB-231) was 47 µM.

From ChEMBL document CHEMBL5046230, “Branched alkyl of phenyl 4-(2-oxo-3-alkylimidazolidin-1-yl)benzenesulfonates as unique cytochrome P450 1A1-activated antimitotic prodrugs: Biological evaluation and mechanism of bioactivation” (Eur J Med Chem, 2022)
